“Also recorded” adds a separate entry of the source.
Columns and labels:
Oct4-GFP MEFs = assay: iPS reprogramming of Oct4-GFP MEFs: clones with ES like morphology and Oct4-GFP positive clones; format: cell-based, mouse; conditions: day 10 of reprogramming; culture up to three weeks
Experimental: (§1) Mouse fibroblasts were isolated from Oct4-GFP, Rosa26-LacZ and Hdac2^flax/flax embryos at E13.5 and cultured in fibroblast medium as described (Takahashi et al., 2007). Hdac2 was excised by infection of Hdac2^flax/flax MEFs with adeno-cre virus. Human dermal fibroblast were cultured in DMEM/F12, 15% FBS, penicillin/streptomycin and L-glutamine. Viral particles were generated by transfection of plated 293T cells with pLOVE vectors encoding miR302/367, Oct4, Sox2, Klf4, or N-myc along with pMD.G and psPAX2 vectors as described (Blelloch et al., 2007). Supernatant from the transfected cells were collected every 24 hr for 48 hrs and titered. The titered viral suspension was mixed with 0.5 μl (0.1 of 10 μg/mL polybrene (American Bioanalytical, MA) per milliliter of viral suspension and used to infect fibroblasts. After viral infection, mouse fibroblast were cultured in mouse ES medium supplemented with or without valproic acid at a final concentration of 2 mM for the indicated length of time. Infected human fibroblast were culture in human ES medium as described (Huangfu et al., 2008a; Takahashi et al., 2007).

MEFs = assay: CellTiter proliferation assay for MEFs; format: cell-based, mouse; conditions: wild-type and Hdac2-/- MEFs
Experimental: Proliferation assays for MEFs were performed using the CellTiter 96 Aqueous One Solution Cell Proliferation kit (Promega, Inc.). 20 μl of CellTiter Reagent, which functions by being incorporated by viable cells into a colorimetric product that can be measured at 490 nm, was added to 100 μL of culture medium, incubated at 37° C. […] absorbance was measured at 490 nm at 1.5 hours, 2.5 hours, and 4.5 hours.

Hdac3 = assay: Western blot for Hdac3 in MEFs; format: cell-based, mouse; conditions: MEFs during miR302/367 reprogramming
Experimental: (§2) Total cell lysates were prepared for Western blotting as previously described (Trivedi et al., 2008). Equal amounts of protein were resolved by SDS-PAGE and transferred to polyvinylidenedifluoride membranes. Membranes were incubated with Hdac1 antibody (1:1000 dilution, Cell Signaling), Hdac2 antibody (1:1000 dilution, Invitrogen) or Hdac3 antibody (1:1000 dilution, Sigma). Primary antibody binding was visualized by HRP-conjugated secondary antibody and detected by enhanced chemiluminescence (LumiGlo, Cell Signaling). For loading control, membranes were reprobed with primary antibody against GAPDH (1:2500 dilution, Abeam).

Hdac1 = assay: Western blot for Hdac1 in MEFs; format: cell-based, mouse; conditions: MEFs during miR302/367 reprogramming
Experimental: as §2

Hdac2-/- MEFs = assay: miR302/367 reprogramming of Hdac2-/- MEFs; format: cell-based, mouse; conditions: Hdac2-/- MEFs transduced with miR302/367
Experimental: as §1
The Hdac2p^flox/flox allele was generated by flanking exon 2 with loxP recombination sites using the targeting vector depicted in FIG. 19A. […]

Hdac2 = assay: Western blot for Hdac2 in MEFs; format: cell-based, mouse; conditions: MEFs during miR302/367 reprogramming
Experimental: as §2

[1] = test system: human foreskin and dermal fibroblasts; assay: Reprogramming of human fibroblasts: colonies with human ES like morphology; format: cell-based
Experimental: as §1

Compound | iPS cell colony generation in MEFs (Oct4-GFP MEFs) | proliferation rates in MEFs (MEFs) | Hdac3 protein expression level (Hdac3) | Hdac1 protein expression level (Hdac1) | effect of VPA addition on number of iPS cell clones (Hdac2-/- MEFs) | Hdac2 protein level (Hdac2) | requirement for and effect of VPA on reprogramming human fibroblasts by miR302/367 [1]
miR367: miR367 expressed alone; sequence AAUUGCACUUUAGCAAUGGUGA (SEQ ID NO: 8) (listed as Homo sapiens) | did not reprogram fibroblasts |  |  |  |  |  | 
CCCC(CCC)C(=O)O [VPA, valproic acid] |  | did not affect proliferation rates | unchanged | unchanged | did not change the number of iPS cell clones | caused degradation of Hdac2 protein | not required; also recorded: did not affect the efficiency of reprogramming

Reference: US9115345B2, “MicroRNA induction of pluripotential stem cells and uses thereof” (The Trustees Of The University Of Pennsylvania, priority 2010, dated 2015)
